Results: ChEMBL document CHEMBL1201862, “PubChem BioAssay data set” (2004)
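Growth conditions: 96-well plates. Treatment: test compound, 48 hours, 5 concentrations. Analysis: linear interpolation between bracketing concentrations; unreached endpoints set to highest concentration. GI50: concentration for 50% inhibition of growth.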 The source made the active and inactive calls. Cut-off read from the data, not from the text of the source: active = GI50 up to about 1.1 µM and inactive = higher.

Key:
Assay in all cases: growth of human tumour cells (NCI), 48 h
A549 = system: A549
COLO 205 = system: COLO 205
HCT-116 = system: HCT-116
HL-60 = system: HL-60
HOP-62 = system: HOP-62
HOP-92 = system: HOP-92
NCI-H226 = system: NCI-H226
SF-295 = system: SF-295
SF-539 = system: SF-539
SK-MEL-28 = system: SK-MEL-28
SK-MEL-2 = system: SK-MEL-2
SK-MEL-5 = system: SK-MEL-5
SN12C = system: SN12C
SR = system: SR
SW-620 = system: SW-620
UACC-257 = system: UACC-257
NCI-H522 = system: NCI-H522

Row | Structure (SMILES) | GI50 (A549) | GI50 (COLO 205) | GI50 (HCT-116) | GI50 (HL-60) | GI50 (HOP-62) | GI50 (HOP-92) | GI50 (NCI-H226) | GI50 (SF-295) | GI50 (SF-539) | GI50 (SK-MEL-28) | GI50 (SK-MEL-2) | GI50 (SK-MEL-5) | GI50 (SN12C) | GI50 (SR) | GI50 (SW-620) | GI50 (UACC-257) | GI50 (NCI-H522)
1 | COc1ccccc1NC(=O)C1=C(C)NC(C)=C(C(=O)Nc2ccccc2OC)C1c1ccccc1Cl | 41.6 µM (inactive) | > 100 µM (inactive) | 52.8 µM (inactive) | 53.6 µM (inactive) | > 100 µM (inactive) | > 100 µM (inactive) | > 100 µM (inactive) | > 100 µM (inactive) | 26.1 µM (inactive) | > 100 µM (inactive) | 88.7 µM (inactive) | 47.8 µM (inactive) | > 100 µM (inactive) | 36.6 µM (inactive) | > 100 µM (inactive) | > 100 µM (inactive) | –
2 | CC(C)(C)C1C=C(Sc2ccccc2)C(=O)O1 (centres undefined) | 33.3 µM (inactive) | 26.9 µM (inactive) | 40.1 µM (inactive) | 24.9 µM (inactive) | 45.4 µM (inactive) | 29.2 µM (inactive) | 54.7 µM (inactive) | 35.2 µM (inactive) | 44.1 µM (inactive) | 83.6 µM (inactive) | > 100 µM (inactive) | – | 36.2 µM (inactive) | – | 80.5 µM (inactive) | 31.8 µM (inactive) | 32.7 µM (inactive)
3 | COc1ccc(N2C(=O)/C(=C(\C)c3cc4ccccc4oc3=O)N=C2c2cc([N+](=O)[O-])ccc2Cl)cc1 | 34.9 µM (inactive) | 43.9 µM (inactive) | 29.9 µM (inactive) | 22.9 µM (inactive) | > 100 µM (inactive) | – | > 100 µM (inactive) | 17.1 µM (inactive) | 29.9 µM (inactive) | 66.4 µM (inactive) | 61 µM (inactive) | 30.6 µM (inactive) | 35 µM (inactive) | 34.4 µM (inactive) | 33.9 µM (inactive) | 44 µM (inactive) | 11.5 µM (inactive)
4 | CCN(CC)CCCC(C)Nc1c2ccc(Cl)cc2nc2cc(Cl)ccc12 (centres undefined) | 4.78 µM (inactive) | 1.94 µM (inactive) | 2.27 µM (inactive) | 1.91 µM (inactive) | 8.18 µM (inactive) | 2.77 µM (inactive) | 4.27 µM (inactive) | 3.4 µM (inactive) | 4.34 µM (inactive) | 5.6 µM (inactive) | 15.7 µM (inactive) | 4.76 µM (inactive) | 4.66 µM (inactive) | – | 3.24 µM (inactive) | 4.6 µM (inactive) | 5.07 µM (inactive)
5 | Cc1c(C)c2ccc(OC(C)C(=O)O)cc2oc1=O (centres undefined) | > 100 µM (inactive) | > 100 µM (inactive) | > 100 µM (inactive) | > 100 µM (inactive) | > 100 µM (inactive) | > 100 µM (inactive) | > 100 µM (inactive) | > 100 µM (inactive) | > 100 µM (inactive) | > 100 µM (inactive) | – | > 100 µM (inactive) | > 100 µM (inactive) | > 100 µM (inactive) | > 100 µM (inactive) | > 100 µM (inactive) | > 100 µM (inactive)
6 | COc1cccc2c1C(=O)c1c(O)c3c(c(O)c1C2=O)C[C@@](O)(C(=O)CN1CCOCC1)C[C@@H]3OC1CC(N)C(O)C(C)O1 (some centres undefined) | 2.43 µM (inactive) | 5.94 µM (inactive) | 1.89 µM (inactive) | 0.895 µM (active) | 2.48 µM (inactive) | – | 1.85 µM (inactive) | 3.72 µM (inactive) | 4.09 µM (inactive) | 12.2 µM (inactive) | 9.48 µM (inactive) | 3.11 µM (inactive) | 2.4 µM (inactive) | – | 2.34 µM (inactive) | 0.000769 µM (active) | 2.82 µM (inactive)
7 | C/C(=N/NS(=O)(=O)c1c(C)cc(C)cc1C)c1cccc[n+]1[O-] | > 100 µM (inactive) | – | > 100 µM (inactive) | > 100 µM (inactive) | > 100 µM (inactive) | > 100 µM (inactive) | – | > 100 µM (inactive) | > 100 µM (inactive) | > 100 µM (inactive) | – | > 100 µM (inactive) | > 100 µM (inactive) | > 100 µM (inactive) | > 100 µM (inactive) | > 100 µM (inactive) | 83.4 µM (inactive)
8 | COc1ccc(/N=N/C(C(=O)c2ccccc2)C(=O)c2ccccc2)cc1 | 21.3 µM (inactive) | 42.1 µM (inactive) | 13.6 µM (inactive) | 10.4 µM (inactive) | 23.3 µM (inactive) | – | 8.67 µM (inactive) | 21.3 µM (inactive) | 25.4 µM (inactive) | 26.4 µM (inactive) | 21.9 µM (inactive) | 14.1 µM (inactive) | 21 µM (inactive) | – | 19.3 µM (inactive) | 24.5 µM (inactive) | 16.2 µM (inactive)
9 | O=C1C2=C(C3=NCCc4c[nH]c1c43)c1c(cc(Br)c(O)c1Br)CCN2 | 18.6 µM (inactive) | 3.31 µM (inactive) | 14.5 µM (inactive) | 3.48 µM (inactive) | 25.3 µM (inactive) | 20.6 µM (inactive) | 16.5 µM (inactive) | 7.13 µM (inactive) | 13.5 µM (inactive) | 17.2 µM (inactive) | 13.6 µM (inactive) | 9.1 µM (inactive) | 14.1 µM (inactive) | – | 15.2 µM (inactive) | 7.5 µM (inactive) | 2 µM (inactive)
